According to the supplement of paper PMC10307832:

Assays:
Assay in all cases: relative viability (nuclei count vs DMSO), 5 days (fraction); higher = more cells survive
[1] = compound: CC(C)N(CCCNC(=O)Nc1ccc(C(C)(C)C)cc1)C[C@H]1O[C@@H](n2ccc3c(N)ncnc32)[C@H](O)[C@@H]1O + O=C(CCCCCCC(=O)Nc1ccccc1)NO [Vorinostat] (partner 1 µM)
How it was run: (§1)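 Dosing by pin tool came one day after lung cancer cell lines were seeded in 1536-well plates, using either one drug or a fixed anchor-drug dose plus five library-drug doses (not always all listed) in √10 steps. After 5 days, nuclei were counted on 4× images. Relative viability is treated-well nuclei count divided by vehicle-well nuclei count, and values are medians of duplicate plates.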

[2] = compound: CC(C)=CC[C@@H](O)C1=CC(=O)c2c(O)ccc(O)c2C1=O [Shikonin] + O=C(c1cc(Cc2n[nH]c(=O)c3ccccc23)ccc1F)N1CCN(C(=O)C2CC2)CC1 [Olaparib] (partner 8 µM)
How it was run: as §1

[3] = compound: CC(C)=CC[C@@H](O)C1=CC(=O)c2c(O)ccc(O)c2C1=O [Shikonin] + Nc1nc2[nH]cc(CCc3ccc(C(=O)N[C@@H](CCC(=O)O)C(=O)O)cc3)c2c(=O)[nH]1 [Pemetrexed] (partner 0.2 µM)
How it was run: as §1

[4] = compound: CC(C)N(CCCNC(=O)Nc1ccc(C(C)(C)C)cc1)C[C@H]1O[C@@H](n2ccc3c(N)ncnc32)[C@H](O)[C@@H]1O + CS(=O)(=O)N1CCN(Cc2cc3nc(-c4cccc5[nH]ncc45)nc(N4CCOCC4)c3s2)CC1 [Pictilisib] (partner 1 µM)
How it was run: as §1

Cell Line	relative viability ([1]; first compound 0.08 µM)	relative viability ([1]; first compound 0.253 µM)	relative viability ([1]; first compound 0.8 µM)	relative viability ([1]; first compound 2.53 µM)	relative viability ([1]; first compound 8 µM)	relative viability ([2]; first compound 0.01 µM)	relative viability ([2]; first compound 0.1 µM)	relative viability ([2]; first compound 0.3162 µM)	relative viability ([2]; first compound 1 µM)	relative viability ([3]; first compound 0.01 µM)	relative viability ([3]; first compound 0.1 µM)	relative viability ([3]; first compound 0.3162 µM)	relative viability ([3]; first compound 1 µM)	relative viability ([4]; first compound 0.08 µM)	relative viability ([4]; first compound 0.253 µM)	relative viability ([4]; first compound 0.8 µM)	relative viability ([4]; first compound 2.53 µM)	relative viability ([4]; first compound 8 µM)
NCI-H661	0.77	0.834	0.812	0.809	0.785	0.847	0.879	0.73	0.646	0.944	1.02	0.957	0.729	0.542	0.281	0.428	0.376	0.422
NCI-H838	0.683	0.744	0.784	0.755	0.672	0.798	0.845	0.865	0.667	0.234	0.24	0.243	0.258	0.328	0.372	0.425	0.473	0.494
NCI-H1355	0.592	0.632	0.529	0.642	0.575	0.811	0.812	0.786	0.776	1.13	1.15	1.02	1.06	0.376	0.337		0.518	0.404
NCI-H1395	0.727	0.58	0.427	0.638	0.786	0.407	0.455	0.416	0.427	0.84	0.944	0.85	1.01	0.595	0.55		0.59	0.738
NCI-H1437	0.8	0.799	0.759	0.791	0.759	0.661	0.678	0.601	0.521	0.332	0.37	0.291	0.354	0.362	0.358	0.526	0.428	0.441
NCI-H1650	0.451	0.608	0.485	0.474	0.444	0.877	0.787	0.732	0.718	0.35	0.403	0.331	0.274	0.55	0.52		0.56	0.624
NCI-H1651	0.543	0.542	0.504	0.577	0.576	0.173	0.188	0.161	0.178	0.631	0.748	0.606	0.652	0.601	0.567	0.498	0.565	0.6
NCI-H1666	1.1	1	1.02	1.01	0.934	0.748	0.732	0.773	0.699	0.869	0.854	0.916	0.861	0.354	0.405	0.39	0.405	0.355
